These are literature values, as cited in patent US12201642B2, “Composition for the treatment of COVID-19” (priority 2020, dated 2025).

One data set deals with HCMV. As to conditions: cultures of smooth muscle cells.

On to `CC(=O)Oc1ccccc1C(=O)O` [Aspirin, Acetylsalicylic acid], for which the “reduction of the yield of HCMV (factor)” value in the data set on HCMV was 2-3. For the same molecule, in the data set with influenza A H1N1 virus, the antiviral effectiveness result is given as “highly effective”. In addition, in the data set on influenza virus (as anti-influenza agent), the toxic side-effects result is “no toxic side-effects”. For the same molecule, in the data set on influenza virus (in vitro and in vivo), the “effect on influenza virus replication” value is on record as “efficiently blocks influenza virus replication”.
